{"source": "patent US8871781B2", "about": "“Methods and compositions for treating a subject for a lymphatic malformation” (The Board of Trustees of the Leland Stanford Junior …, priority 2011, dated 2014)", "type_in_all_cases": "in vivo, human", "key": {"lymphatic malformations": {"system": "lymphatic malformations", "experiment": "Pilot study: sildenafil for 12 weeks in two children with disabling LMs", "description": "Based on the observation of marked regression in a lymphatic malformation after starting sildenafil, a pilot study to treat otherwise healthy children with LMs with sildenafil was approved by the Stanford University Human Research Protection Program (IRB). After informed consent was obtained, sildenafil (goal dose 1.0 mg/kg/dose TID) was administered to two children with disabling LMs for 12 weeks, and results are summarized in Table 1."}, "lymphatic malformation [1]": {"system": "lymphatic malformation", "experiment": "Clinical trial: MRI before and after 20 weeks of sildenafil", "conditions": "for volume of the lymphatic malformation after 20 weeks: MRI; for decrease of the volume of the lymphatic malformation: over 20 weeks", "description": "An additional 7 subjects were enrolled into a clinical trial. Sildenafil was administered substantially as described above in Examples 1-2. […] Three subjects completed the 20 week trial and had the follow up MRI completed; the remaining four subjects are still undergoing the trial."}, "lymphatic malformation [2]": {"system": "lymphatic malformation", "experiment": "Index patient: infant with microcystic venolymphatic malformation given sildenafil for pulmonary hypertension", "description": "FIG. 1, Panels A-B depict pre- and post-treatment magnetic resonance imaging (MRI) contrast-enhanced images of a subject with a lymphatic malformation treated in accord with the subject methods. […] Contrast highlights the heart with right ventricular enlargement (dashed arrow), aorta, and pulmonary vessels.\nAn infant was born with massive enlargement of their right chest and arm. […], the infant developed tachypnea due to congestive heart failure and pulmonary edema. […] At 9 months, cardiac catheterization confirmed the diagnosis of idiopathic pulmonary hypertension and sildenafil was started (initially 0.5 mg/kg/dose TID and titrated to 0.75 mg/kg/dose TID). […] The post-MRI course was complicated by worsening cardiopulmonary interactions, respiratory failure and subsequent cardiac failure leading to their death."}, "[3]": {"conditions": "Subject 1, LM of left orbit, upper and lower eyelids"}, "[4]": {"conditions": "Subject 2, LM of right axilla, after 12 weeks of treatment (FIG. 3, Panel B)"}, "[5]": {"conditions": "Subject 2, LM of right axilla, chest"}, "[6]": {"conditions": "Subject 2, LM of right upper back"}}, "note": "Entries after “also recorded” stand apart in the source; their conditions may differ."}
{"smiles": "CCCc1nn(C)c2c(=O)[nH]c(-c3cc(S(=O)(=O)N4CCN(C)CC4)ccc3OCC)nc12", "note": "[sildenafil]", "values": [{"measurement": "change of the lesion after stopping the medication", "setting": "lymphatic malformations; Subject 1", "result": "enlargement of the lesion"}, {"measurement": "Adverse effects", "setting": "lymphatic malformations; Subject 1, 12 weeks of therapy", "result": "Loose yellow"}, {"measurement": "clinical change of eyelid LM", "setting": "lymphatic malformations; Subject 1, after 3 weeks of therapy", "result": "improved eye opening and definition of the upper eyelid fold and superior palpebral sulcus"}, {"measurement": "improvement of LM", "setting": "lymphatic malformations; Subject 1, at the end of treatment (12 weeks)", "result": 25, "unit": "%"}, {"measurement": "Change in LM 4 weeks after discontinuing therapy", "setting": "lymphatic malformations; [3]", "result": "Enlargement"}, {"measurement": "Parent impression of change in LM after 12 weeks of therapy", "setting": "lymphatic malformations; [3]", "result": "Fair"}, {"measurement": "Adverse effects", "setting": "lymphatic malformations; Subject 2, 12 weeks of therapy", "result": "None"}, {"measurement": "consistency of the lesion", "setting": "lymphatic malformations; [4]", "result": "softer and saggier"}, {"measurement": "reduction in diameter of the lesion", "setting": "lymphatic malformations; [4]", "result": 1, "unit": "cm"}, {"measurement": "improvement of LMs", "setting": "lymphatic malformations; Subject 2, after 8 weeks of treatment", "result": 50, "unit": "%"}, {"measurement": "improvement of LMs", "setting": "lymphatic malformations; Subject 2, after 12 weeks of treatment", "result": 75, "unit": "%"}, {"measurement": "appearance of the large LM affecting the back", "setting": "lymphatic malformations; Subject 2, at the 12 week visit (FIG. 2, Panel C)", "result": "appeared deflated"}, {"measurement": "change of the LMs after stopping the medication", "setting": "lymphatic malformations; Subject 2, four weeks after stopping (FIG. 2, Panel D)", "result": "mild enlargement"}, {"measurement": "Change in LM 4 weeks after discontinuing therapy", "setting": "lymphatic malformations; Subject 2, LM of left forearm", "result": "Stable"}, {"measurement": "Parent impression of change in LM after 12 weeks of therapy", "setting": "lymphatic malformations; Subject 2, LM of left forearm", "result": "Good"}, {"measurement": "Change in LM 4 weeks after discontinuing therapy", "setting": "lymphatic malformations; [5]", "result": "Stable"}, {"measurement": "Parent impression of change in LM after 12 weeks of therapy", "setting": "lymphatic malformations; [5]", "result": "Good"}, {"measurement": "Change in LM 4 weeks after discontinuing therapy", "setting": "lymphatic malformations; [6]", "result": "Enlargement"}, {"measurement": "Parent impression of change in LM after 12 weeks of therapy", "setting": "lymphatic malformations; [6]", "result": "Good"}, {"measurement": "tolerability", "setting": "lymphatic malformations; two children, 12 weeks, goal dose 1.0 mg/kg/dose TID", "result": "tolerated without significant adverse effects"}, {"measurement": "adverse events associated with the medication", "setting": "lymphatic malformation [1]; 20 week trial", "result": "no adverse events"}, {"measurement": "volume of the lymphatic malformation after 20 weeks", "setting": "lymphatic malformation [1]; first subject evaluated, 186 cc before sildenafil", "result": 174, "unit": "cc"}, {"measurement": "decrease of the volume of the lymphatic malformation", "setting": "lymphatic malformation [1]; first subject evaluated, 186 cc to 174 cc", "result": 6.45, "unit": "%"}, {"measurement": "volume of the lymphatic malformation after 20 weeks", "setting": "lymphatic malformation [1]; second subject evaluated, 46.5 cc before sildenafil", "result": 42.7, "unit": "cc"}, {"measurement": "decrease of the volume of the lymphatic malformation", "setting": "lymphatic malformation [1]; second subject evaluated, 46.5 cc to 42.7 cc", "result": 8.17, "unit": "%"}, {"measurement": "volume of the lymphatic malformation after 20 weeks", "setting": "lymphatic malformation [1]; third subject evaluated, 56.246 cc before sildenafil", "result": 51.732, "unit": "cc"}, {"measurement": "decrease of the volume of the lymphatic malformation", "setting": "lymphatic malformation [1]; third subject evaluated, 56.246 cc to 51.732 cc", "result": 8.03, "unit": "%"}, {"measurement": "MRI finding of the malformation after therapy", "setting": "lymphatic malformation [2]; cardiac MRI (FIG. 1, Panel B)", "result": "minimal residual lymphatic malformation; also recorded: near complete resolution of the malformation"}, {"measurement": "role of sildenafil in the patient's death", "setting": "lymphatic malformation [2]; death from respiratory and cardiac failure", "result": "not thought to play a role in their death"}, {"measurement": "skin examination of the malformation", "setting": "lymphatic malformation [2]; four months after starting sildenafil", "result": "thin, bluish plaque and redundant tissue"}, {"measurement": "change in size of the malformation", "setting": "lymphatic malformation [2]; sildenafil, 0.5 titrated to 0.75 mg/kg/dose TID", "result": "gradually decreased in size"}]}
